41 compounds from patent US8088806B2 (Achillion Pharmaceuticals, Inc., priority 2005, dated 2012) can be followed below.

The test system of the first test is HCV replicon. Nature of the test: Replicon based assay of HCV replication inhibition (NPT ELISA). To be noted: Hepatitis C virus, Huh-7, 72 h, Table I; Huh-7 HCV replicon-containing cells, three days; read-out: Activity. Format: cell-based, Hepatitis C virus. Put shortly: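 NPT (neomycin phosphotransferase) content, proportional to replicon replication, quantified by capture ELISA on day four. Before that, replicon-bearing Huh-7 cells in G418-free screening medium were exposed three days at 37° C to compound, typically six doses from 10 to 0.03 micromolar, with equal DMSO across wells.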
Consider `Fc1cccc(-c2csc(Nc3cccc(OCc4ccccc4)c3)n2)c1` [compound 193, N-(3-(benzyloxy)phenyl)-4-(3-fluorophenyl)thiazol-2-amine], for which the EC50 was less than 1 µM. Still for that read-out and setting: the result for `COc1ccc(OC)c(Nc2nc(-c3c(C)nc4sccn34)cs2)c1` [compound 164, N-(2,5-dimethoxyphenyl)-4-(6-methylimidazo[2,1-b]thiazol-5-yl)thiazol-2-amine] reads more than 10 µM; that for `CCCCCOc1ccc(Nc2nc(C(=O)Nc3ccc(C(C)(C)C)cc3)cs2)cc1C(F)(F)F` [compound 17, 2-(3-(trifluoromethyl)-4-(pentyloxy)phenylamino)-N-(4-tert-butylphenyl)thiazole-4-carboxamide], more than 10 µM. Still for that read-out and setting: the result for `Clc1ccc(-c2csc(Nc3cccc(Cc4ccccc4)c3)n2)cc1Cl` [compound 36, N-(3-benzylphenyl)-4-(3,4-dichlorophenyl)thiazol-2-amine] reads less than 1 µM; that for `CCCCOc1ccc(Nc2nc(-c3cccnc3)cs2)cc1` [compound 91, N-(4-butoxyphenyl)-4-(pyridin-3-yl)thiazol-2-amine], less than 1 µM. Same read-out and setting: the result for `c1cncc(-c2csc(Nc3ccc(C4CCCCC4)cc3)n2)c1` [compound 100, N-(4-cyclohexylphenyl)-4-(pyridin-3-yl)thiazol-2-amine] reads less than 1 µM; that for `CCCCCOc1ccc(Nc2nc(-c3ccc(Cl)c(Cl)c3)cs2)cn1` [compound 64, N-(4-(3,4-dichlorophenyl)thiazol-2-yl)-6-(pentyloxy)pyridin-3-amine], more than 10 µM. In the case of `Fc1ccc(-c2csc(Nc3ccc(Cc4ccccc4)cc3)n2)c(F)c1` [compound 41, N-(4-benzylphenyl)-4-(2,4-difluorophenyl)thiazol-2-amine], the EC50 was more than 10 µM.

Consider `c1ccc(-c2cccc(CNc3nc(-c4cccnc4)cs3)c2)cc1` [compound 79, N-(3-phenyl-benzyl)-4-(pyridin-3-yl)thiazol-2-amine], for which the EC50 is more than 10 µM. On the same count and under the same terms, the result for `CCCCCc1ccc(Nc2nc(-c3cccnc3)cs2)cc1` [compound 86, N-(4-pentylphenyl)-4-(pyridin-3-yl)thiazol-2-amine] reads less than 1 µM.

Staying with this test, now noted: Hepatitis C virus, Huh-7, 72 h, Table III; Huh-7 HCV replicon-containing cells, three days; read-out: Activity.
In the case of `CCCCCOc1ccc(Nc2nc(-c3cncc(C(=O)O)c3)cs2)cc1C(F)(F)F` [compound 646, 5-(2-(3-(trifluoromethyl)-4-(pentyloxy)phenylamino)thiazol-4-yl)pyridine-3-carboxylic acid], the EC50 was less than 1 µM.

For `CCCCCOc1ccc(Nc2nc(-c3cc4cccnc4nc3O)cs2)cc1C(F)(F)F` [compound 543, 3-(2-(3-(trifluoromethyl)-4-(pentyloxy)phenylamino)thiazol-4-yl)-l,8-naphthyridin-2-ol], the EC50 lay within 1 to 10 µM. The same measure, in the same setting: the result for `CCCCCCCOc1ccc(C(=O)Nc2nc(-c3cccnc3)cs2)cc1` [compound 602, 4-(heptyloxy)-N-(4-(pyridin-3-yl)thiazol-2-yl)benzamide] reads more than 10 µM; that for `CCCCCCCc1nc2cc(Nc3nc(-c4cccnc4)cs3)ccc2o1` [compound 716, 2-heptyl-N-(4-(pyridin-3-yl)thiazol-2-yl)benzo[d]oxazol-5-amine], less than 1 µM; that for `CCCCCCCCOc1ccc(Nc2nc(-c3ccc4c(c3)COC4=O)cs2)cc1C(F)(F)F` [compound 660, 5-(2-(3-(trifluoromethyl)-4-(octyloxy)phenylamino)thiazol-4-yl)isobenzofuran-1(3H)-one], less than 1 µM. On the same count and under the same terms, the result for `CCCCCCCCOc1ccc(Nc2nc(-c3ccsc3C#N)cs2)cc1C(F)(F)F` [compound 671, 3-(2-(3-(trifluoromethyl)-4-(octyloxy)phenylamino)thiazol-4-yl)thiophene-2-carbonitrile] reads less than 1 µM.

Still in this test, the particulars now being: Hepatitis C virus, replicon based assay of HCV replication inhibition; Table II; read-out: Activity.
Turning to `c1ccc(Oc2cccc(Nc3nc(-c4cc5cnccc5o4)cs3)c2)cc1` [compound 363, 4-(furo[3,2-c]pyridin-2-yl)-N-(3-phenoxyphenyl)thiazol-2-amine], the EC50 was more than 10 µM. Still for that read-out and setting: then `CCCCCOc1ccc(Nc2nc(-c3ccc(OC)nc3)cs2)cc1C(F)(F)F` [compound 378, 4-(6-methoxypyridin-3-yl)-N-(4-(pentyloxy)-3-(trifluoromethyl)phenyl)thia-zol-2-amine], with less than 1 µM.

`CCCCCCCCOc1ccc(Nc2nc(-c3ccc(C(=O)O)cc3)cs2)cc1` [compound 303, 4-(2-(4-(octyloxy)phenylamino)thia-zol-4-yl)benzoic acid]: the EC50 was 1 to 10 µM. The same measure, in the same setting: the result for `CCCCCOc1ccc(Nc2nc(CN3CCC(O)C3)cs2)cc1F` (centres unmarked) [compound 288, 1-((2-(3-fluoro-4-(pentyloxy)phenylamino)thia-zzol-4-yl)methyl)pyrrolidin-3-ol] reads less than 1 µM; that for `CCCCCCCCOc1ccc(Nc2nc(CN3CCC(O)C3)cs2)cc1` (centres unmarked) [compound 318, 1-((2-(4-(octyloxy)phenylamino)thia-zol-4-yl)methyl)pyrrolidin-3-ol], less than 1 µM.

Take `CCCCCOc1ccc(Nc2nc(-c3cncnc3)cs2)cc1C(F)(F)F` [compound 505, N-(3-(trifluoromethyl)-4-(pentyloxy)phenyl)-4-(pyrimidin-5-yl)thiazol-2-amine]: the EC50 was less than 1 µM. The same measure, in the same setting: the result for `CCCCCCCOc1ccc(Nc2nc(-c3ccc(OC)cc3)cs2)cc1` [compound 424, N-(4-(heptyloxy)phenyl)-4-(4-methoxyphenyl)thiazol-2-amine] reads less than 1 µM; that for `CCCCCCCOc1ccc(Nc2nc(-c3cc(OC)ccc3OC)cs2)cc1` [compound 432, N-(4-(heptyloxy)phenyl)-4-(2,5-dimethoxyphenyl)thiazol-2-amine], less than 1 µM; that for `CCCCCCCCOc1ccc(Nc2nc(-c3ccc(OC)cc3)c(-c3ccc(OC)cc3)s2)cc1` [compound 353, 4,5-bis(4-methoxyphenyl)-N-(4-(octyloxy)phenyl)thiazol-2-amine], 1 to 10 µM. On the same count and under the same terms, then `N#Cc1ccc(-c2csc(Nc3ccc(OCC4CCCCC4)c(F)c3)n2)cn1` [compound 511, 5-(2-(4-(cyclohexylmethoxy)-3-fluorophenylamino)thiazol-4-yl)pyridine-2-carbonitrile], with more than 10 µM. On the same count and under the same terms, then `COc1ccc(CNc2nc(-c3ccc(OC)cc3)c(-c3ccc(OC)cc3)s2)cc1` [compound 336, N-(4-methoxybenzyl)-4,5-bis(4-methoxypheenyl)thiazol-2-amine], with more than 10 µM; and `CCCCCCCCN(C)c1ccc(Nc2nc(Cc3ccccc3)cs2)cc1` [compound 493, N^1-(4-benzylthiazol-2-yl)-N^4-methyl-N^4-octylbenzene-1,4-diamine], with 1 to 10 µM.

Staying with this test, now noted: Hepatitis C virus, replicon based assay of HCV replication inhibition; Table IV; read-out: Activity.
With `c1cncc(-c2csc(Nc3nc(-c4ccc5ccccc5c4)cs3)n2)c1` [compound 815, 4-(naphthalen-2-yl)-N-(4-(pyridin-3-yl)thiazol-2-yl)thiazol-2-amine], the EC50 was 1 to 10 µM.

For `Fc1cc(Nc2nc(-c3cccnc3)cs2)ccc1OCCCCc1cccs1` [compound 852, N-(4-(4-(thiophen-2-yl)butoxy)-3-fluorophenyl)-4-(pyridin-3-yl)thiazol-2-amine], the EC50 was less than 1 µM. As for `c1cncc(-c2csc(Nc3cc(-c4cccs4)n[nH]3)n2)c1` [compound 746, N-(4-(pyridin-3-yl)thiazol-2-yl)-3-(thiophen-2-yl)-1H-pyrazol-5-amine], the EC50 is more than 10 µM. Still for that read-out and setting: the result for `Fc1c(Nc2nc(-c3cccnc3)cs2)cccc1C(F)(F)F` [compound 890, N-(2-fluoro-3-(trifluoromethyl)phenyl)-4-(pyridin-3-yl)thiazol-2-amine] reads 1 to 10 µM. Same read-out and setting: the result for `CCCCCCCCOc1ccc(Nc2nc(C#N)c(N)s2)cc1C(F)(F)F` [compound 859, 2-(3-(trifluoromethyl)-4-(octyloxy)phenylamino)-5-aminothiazole-4-carbonitrile] reads less than 1 µM; that for `CCN(CC)C(=O)c1cccc(Nc2nc(-c3cccnc3)cs2)c1` [compound 759, 3-(4-(pyridin-3-yl)thiazol-2-ylamino)-N,N-diethylbenzamide], more than 10 µM; that for `Clc1cc(Nc2nc(-c3cccnc3)cs2)ccc1N1CCOCC1` [compound 742, N-(3-chloro-4-morpholinophenyl)-4-(pyridin-3-yl)thiazol-2-amine], 1 to 10 µM.

In the case of `FC(F)(F)c1cc(Nc2nc(-c3cnccn3)cs2)ccc1OCCCCc1cccs1` [compound 941, N-(4-(4-(thiophen-2-yl)butoxy)-3-(trifluoromethyl)phenyl)-4-(pyrazin-2-yl)thiazol-2-amine], the EC50 was less than 1 µM. Turning to `O=C(O)Cc1ccc(-c2csc(Nc3ccc(OCCCCc4cccs4)c(C(F)(F)F)c3)n2)s1` [compound 925, 2-(5-(2-(4-(4-(thiophen-2-yl)butoxy)-3-(trifluoromethyl)phenylamino)thiazol-4-yl)thiophen-2-yl) acetic acid], the EC50 was less than 1 µM.

`Cc1ccc(CCCCOc2ccc(Nc3nc(-c4cccnc4)cs3)cc2C(F)(F)F)cc1` [compound 805, N-(4-(4-p-tolylbutoxy)-3-(trifluoromethyl)phenyl)-4-(pyridin-3-yl)thiazol-2-amine]: the EC50 was 1 to 10 µM.

Turning to `Clc1ccc(Oc2ccc(Nc3nc(-c4cccnc4)cs3)cc2)cc1` [compound 896, N-(4-(4-chlorophenoxy)phenyl)-4-(pyridin-3-yl)thiazol-2-amine], the EC50 was less than 1 µM. Still for that read-out and setting: then `CCCCCCCCOc1ccc(Nc2nc(-c3cccnc3C#N)cs2)cc1C(F)(F)F` [compound 813, 3-(2-(3-(trifluoromethyl)-4-(octyloxy)phenylamino)thiazol-4-yl)pyridine-2-carbonitrile], with less than 1 µM. `CCCCCCCCOc1ccc(Nc2nc(-c3nc(C(=O)OCC)cs3)cs2)cc1C(F)(F)F` [compound 731, ethyl 2-(2-(3-(trifluoromethyl)-4-(octyloxy)phenylamino)thiazol-4-yl)thiazole-4-carboxylate]: the EC50 was less than 1 µM.
